Tests used:
Test in all cases: relative viability (nuclei count vs DMSO), 5 days (fraction); higher = more cells survive
[1] = compound: CCC1=CN=CN=C1N2CCN(CC2)CC3=NC4=C(N3)C=C(C=C4)C(F)(F)F + Cc1cc(Nc2cc(N3CCN(C)CC3)nc(Sc3ccc(NC(=O)C4CC4)cc3)n2)n[nH]1 [Tozasertib] (partner 0.1 µM)
Outline: (§1)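 Lung cancer cell lines in 1536-well plates were dosed by pin tool the day after seeding, either with one drug alone or with a fixed anchor-drug dose plus five library-drug doses (not always all listed) in √10 steps. After 5 days, cells were fixed and their nuclei stained in one step (final 0.05% Triton X-100, 1% formaldehyde, 1 ug/ml Hoechst), then counted on 4× images. Relative viability is the nuclei count in treated wells divided by that in vehicle wells. Values are medians of duplicate plates.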

Mirin + Dasatinib = compound: N=C1NC(=O)/C(=C/c2ccc(O)cc2)S1 [Mirin] + Cc1nc(Nc2ncc(C(=O)Nc3c(C)cccc3Cl)s2)cc(N2CCN(CCO)CC2)n1 [Dasatinib] (partner 0.075 µM)
Outline: as §1

[2] = compound: CCn1c(-c2nonc2N)nc2cnc(Oc3cccc(NC(=O)c4ccc(OCCN5CCOCC5)cc4)c3)cc21 + Nc1nc2[nH]cc(CCc3ccc(C(=O)N[C@@H](CCC(=O)O)C(=O)O)cc3)c2c(=O)[nH]1 [Pemetrexed] (partner 0.2 µM)
Outline: as §1

[3] = compound: CCn1c(-c2nonc2N)nc2cnc(Oc3cccc(NC(=O)c4ccc(OCCN5CCOCC5)cc4)c3)cc21 + CC(=O)Nc1cccc(-n2c(=O)n(C3CC3)c(=O)c3c(Nc4ccc(I)cc4F)n(C)c(=O)c(C)c32)c1 [Trametinib] (partner 0.02 µM)
Outline: as §1

LXF-289
relative viability ([1]; first compound 0.04 µM): 0.168
relative viability ([1]; first compound 0.1265 µM): 0.175
relative viability ([1]; first compound 0.4 µM): 0.206
relative viability ([1]; first compound 1.265 µM): 0.16
relative viability ([1]; first compound 4 µM): 0.192
relative viability (Mirin + Dasatinib; first compound 0.25 µM): 0.26
relative viability (Mirin + Dasatinib; first compound 0.7906 µM): 0.214
relative viability (Mirin + Dasatinib; first compound 2.5 µM): 0.202
relative viability (Mirin + Dasatinib; first compound 7.906 µM): 0.207
relative viability (Mirin + Dasatinib; first compound 25 µM): 0.202
relative viability ([2]; first compound 0.04 µM): 0.972
relative viability ([2]; first compound 0.1265 µM): 0.974
relative viability ([2]; first compound 0.4 µM): 0.918
relative viability ([2]; first compound 1.265 µM): 0.856
relative viability ([2]; first compound 4 µM): 0.795
relative viability ([3]; first compound 0.04 µM): 0.761
relative viability ([3]; first compound 0.1265 µM): 0.75
relative viability ([3]; first compound 0.4 µM): 0.685
relative viability ([3]; first compound 1.265 µM): 0.667
relative viability ([3]; first compound 4 µM): 0.754

NCI-H23
relative viability ([1]; first compound 0.04 µM): 0.341
relative viability ([1]; first compound 0.1265 µM): 0.361
relative viability ([1]; first compound 0.4 µM): 0.346
relative viability ([1]; first compound 1.265 µM): 0.305
relative viability ([1]; first compound 4 µM): 0.361
relative viability (Mirin + Dasatinib; first compound 0.25 µM): 0.934
relative viability (Mirin + Dasatinib; first compound 2.5 µM): 0.77
relative viability (Mirin + Dasatinib; first compound 7.906 µM): 0.604
relative viability (Mirin + Dasatinib; first compound 25 µM): 0.555
relative viability ([2]; first compound 0.04 µM): 0.864
relative viability ([2]; first compound 0.1265 µM): 0.74
relative viability ([2]; first compound 0.4 µM): 0.442
relative viability ([2]; first compound 1.265 µM): 0.532
relative viability ([2]; first compound 4 µM): 0.431
relative viability ([3]; first compound 0.04 µM): 0.413
relative viability ([3]; first compound 0.1265 µM): 0.405
relative viability ([3]; first compound 0.4 µM): 0.407
relative viability ([3]; first compound 1.265 µM): 0.281
relative viability ([3]; first compound 4 µM): 0.305

NCI-H322M
relative viability ([1]; first compound 0.04 µM): 0.485
relative viability ([1]; first compound 0.1265 µM): 0.446
relative viability ([1]; first compound 0.4 µM): 0.485
relative viability ([1]; first compound 1.265 µM): 0.469
relative viability ([1]; first compound 4 µM): 0.488
relative viability (Mirin + Dasatinib; first compound 0.25 µM): 0.264
relative viability (Mirin + Dasatinib; first compound 0.7906 µM): 0.258
relative viability (Mirin + Dasatinib; first compound 2.5 µM): 0.246
relative viability (Mirin + Dasatinib; first compound 7.906 µM): 0.268
relative viability (Mirin + Dasatinib; first compound 25 µM): 0.244
relative viability ([2]; first compound 0.04 µM): 0.714
relative viability ([2]; first compound 0.1265 µM): 0.716
relative viability ([2]; first compound 0.4 µM): 0.617
relative viability ([2]; first compound 1.265 µM): 0.47
relative viability ([2]; first compound 4 µM): 0.559
relative viability ([3]; first compound 0.04 µM): 0.631
relative viability ([3]; first compound 0.1265 µM): 0.604
relative viability ([3]; first compound 0.4 µM): 0.522
relative viability ([3]; first compound 1.265 µM): 0.487
relative viability ([3]; first compound 4 µM): 0.57

NCI-H358
relative viability ([1]; first compound 0.04 µM): 0.0937
relative viability ([1]; first compound 0.1265 µM): 0.0935
relative viability ([1]; first compound 0.4 µM): 0.101
relative viability ([1]; first compound 1.265 µM): 0.112
relative viability ([1]; first compound 4 µM): 0.109
relative viability (Mirin + Dasatinib; first compound 0.25 µM): 0.2
relative viability (Mirin + Dasatinib; first compound 0.7906 µM): 0.16
relative viability (Mirin + Dasatinib; first compound 2.5 µM): 0.161
relative viability (Mirin + Dasatinib; first compound 7.906 µM): 0.134
relative viability (Mirin + Dasatinib; first compound 25 µM): 0.13
relative viability ([2]; first compound 0.04 µM): 0.176
relative viability ([2]; first compound 0.1265 µM): 0.169
relative viability ([2]; first compound 0.4 µM): 0.19
relative viability ([2]; first compound 1.265 µM): 0.178
relative viability ([2]; first compound 4 µM): 0.151
relative viability ([3]; first compound 0.04 µM): 0.14
relative viability ([3]; first compound 0.1265 µM): 0.161
relative viability ([3]; first compound 0.4 µM): 0.115
relative viability ([3]; first compound 1.265 µM): 0.129
relative viability ([3]; first compound 4 µM): 0.113

NCI-H441
relative viability ([1]; first compound 0.04 µM): 0.501
relative viability ([1]; first compound 0.1265 µM): 0.752
relative viability ([1]; first compound 0.4 µM): 0.506
relative viability ([1]; first compound 1.265 µM): 0.583
relative viability ([1]; first compound 4 µM): 0.622
relative viability (Mirin + Dasatinib; first compound 0.25 µM): 0.662
relative viability (Mirin + Dasatinib; first compound 0.7906 µM): 0.556
relative viability (Mirin + Dasatinib; first compound 2.5 µM): 0.622
relative viability (Mirin + Dasatinib; first compound 7.906 µM): 0.59
relative viability (Mirin + Dasatinib; first compound 25 µM): 0.439
relative viability ([2]; first compound 0.04 µM): 0.261
relative viability ([2]; first compound 0.1265 µM): 0.26
relative viability ([2]; first compound 0.4 µM): 0.251
relative viability ([2]; first compound 1.265 µM): 0.243
relative viability ([2]; first compound 4 µM): 0.252
relative viability ([3]; first compound 0.04 µM): 0.466
relative viability ([3]; first compound 0.1265 µM): 0.43
relative viability ([3]; first compound 0.4 µM): 0.289
relative viability ([3]; first compound 1.265 µM): 0.38
relative viability ([3]; first compound 4 µM): 0.477

NCI-H460
relative viability ([1]; first compound 0.04 µM): 0.437
relative viability ([1]; first compound 0.1265 µM): 0.403
relative viability ([1]; first compound 0.4 µM): 0.404
relative viability ([1]; first compound 1.265 µM): 0.315
relative viability ([1]; first compound 4 µM): 0.4
relative viability (Mirin + Dasatinib; first compound 0.25 µM): 0.566
relative viability (Mirin + Dasatinib; first compound 0.7906 µM): 0.487
relative viability (Mirin + Dasatinib; first compound 2.5 µM): 0.468
relative viability (Mirin + Dasatinib; first compound 7.906 µM): 0.457
relative viability (Mirin + Dasatinib; first compound 25 µM): 0.38
relative viability ([2]; first compound 0.04 µM): 0.0568
relative viability ([2]; first compound 0.1265 µM): 0.0572
relative viability ([2]; first compound 0.4 µM): 0.0592
relative viability ([2]; first compound 1.265 µM): 0.0521
relative viability ([2]; first compound 4 µM): 0.0564
relative viability ([3]; first compound 0.04 µM): 0.132
relative viability ([3]; first compound 0.1265 µM): 0.203
relative viability ([3]; first compound 0.4 µM): 0.0433
relative viability ([3]; first compound 1.265 µM): 0.0407
relative viability ([3]; first compound 4 µM): 0.0579

NCI-H520
relative viability ([1]; first compound 0.04 µM): 0.423
relative viability ([1]; first compound 0.1265 µM): 0.432
relative viability ([1]; first compound 0.4 µM): 0.403
relative viability ([1]; first compound 4 µM): 0.452
relative viability (Mirin + Dasatinib; first compound 0.25 µM): 0.192
relative viability (Mirin + Dasatinib; first compound 0.7906 µM): 0.164
relative viability (Mirin + Dasatinib; first compound 2.5 µM): 0.282
relative viability (Mirin + Dasatinib; first compound 7.906 µM): 0.172
relative viability (Mirin + Dasatinib; first compound 25 µM): 0.249
relative viability ([2]; first compound 0.04 µM): 1.01
relative viability ([2]; first compound 0.1265 µM): 0.662
relative viability ([2]; first compound 0.4 µM): 0.634
relative viability ([2]; first compound 1.265 µM): 0.372
relative viability ([2]; first compound 4 µM): 0.336
relative viability ([3]; first compound 0.04 µM): 0.734
relative viability ([3]; first compound 0.1265 µM): 0.738
relative viability ([3]; first compound 0.4 µM): 0.469
relative viability ([3]; first compound 1.265 µM): 0.406
relative viability ([3]; first compound 4 µM): 0.311

NCI-H522
relative viability ([1]; first compound 0.04 µM): 0.59
relative viability ([1]; first compound 0.1265 µM): 0.591
relative viability ([1]; first compound 0.4 µM): 0.467
relative viability ([1]; first compound 1.265 µM): 0.518
relative viability ([1]; first compound 4 µM): 0.499
relative viability (Mirin + Dasatinib; first compound 0.25 µM): 0.814
relative viability (Mirin + Dasatinib; first compound 0.7906 µM): 0.869
relative viability (Mirin + Dasatinib; first compound 2.5 µM): 0.845
relative viability (Mirin + Dasatinib; first compound 7.906 µM): 0.652
relative viability (Mirin + Dasatinib; first compound 25 µM): 0.648
relative viability ([2]; first compound 0.04 µM): 1.06
relative viability ([2]; first compound 0.1265 µM): 0.763
relative viability ([2]; first compound 0.4 µM): 0.917
relative viability ([2]; first compound 1.265 µM): 0.703
relative viability ([2]; first compound 4 µM): 0.595
relative viability ([3]; first compound 0.04 µM): 0.739
relative viability ([3]; first compound 0.1265 µM): 0.705
relative viability ([3]; first compound 0.4 µM): 0.652
relative viability ([3]; first compound 1.265 µM): 0.629
relative viability ([3]; first compound 4 µM): 0.751

Source: the supplement of paper PMC10307832
